# In publication PMC7600127, “Peptide-Based TNF-α-Binding Decoy Therapy Mitigates Lipopolysaccharide-Induced Liver Injury in Mice” (Pharmaceuticals, 2020):
# Test system: LPS-induced liver injury
# Test: Exogenous TNF-α counteraction of SEM18 in LPS-treated mice
# Assay type: in vivo, Balb/cJ mice
# Conditions: LSEM + TNF-α group vs LSEM group; TNF-α 0.3 mg/kg then 3 x 0.15 mg/kg i.p. with SEM18; 24 h after LPS 15 mg/kg; n = 5
# Protocol: Exogenous TNF-α (recombinant mouse TNF-α; R&D Systems, Minneapolis, MN, USA) was used to confirm whether the therapeutic effects of SEM18 peptide were mediated by decreasing TNF-α binding to TNFR1. A set of mice (n = 5, designated as the LSEM + TNF-α group) were treated with LPS as described earlier. Two hours after LPS, exogenous TNF-α (0.3 mg/kg i.p.) was administered, followed by SEM18 (0.3 mg/kg, i.p.). Supplemental doses of exogenous TNF-α administration (0.15 mg/kg, i.p.) and SEM18 (0.15 mg/kg, i.p.) were administered every 2 h three times. These mice were closely monitored for 24 h (starting from LPS administration). All mice survived the experiment. […]
# Figure 7 Exogenous tumor necrosis factor (TNF)-α counteracts the effects of SEM18 peptide. (A) Binding of TNF-α to TNF receptor 1, as measured at 24 h after lipopolysaccharide (LPS) administration using immunofluorescence staining of proximity ligation assay (PLA). (B) Plasma concentrations of aspartate aminotransferase (AST) and alanine aminotransferase (ALT) and the wet/dry (W/D) weight ratio of the liver tissues, as measured at 24 h after LPS administration. […] For apoptosis analysis, liver tissues were assayed using the terminal deoxynucleotidyl transferase dUTP nick-end labeling (TUNEL) method and the mean TUNEL-positive cell in liver tissues (per 0.25 mm^2) was calculated, as measured at 24 h after LPS administration. […]
substance,measurement,value
recombinant mouse TNF-α [exogenous TNF-α],effect of exogenous TNF-α on the therapeutic effects of SEM18 peptide,counteracting the therapeutic effects of SEM18 peptide
